Tests used:
CLR-RAMP1 [1] = biological target: T1, CLR-RAMP1 (Homo sapiens, UniProt O60894+Q16602); test: Internalisation of CLR-RAMP1 (BRET CLR-Nluc / RIT-Venus); conditions: HEK293T, CLR-Nluc + FLAG-RAMP1, RIT-Venus BRET; mean ± SEM, n = 3-4
HEK293T cells = test: cAMP accumulation in HEK293T cells with endogenous CLR and RAMPs; format: cell-based; conditions: far lower potency than expected of CLR with any RAMP
CLR-RAMP3 [2] = biological target: T2, CLR-RAMP3 (Homo sapiens, UniProt O60896+Q16602); test: Internalisation of CLR-RAMP3 (BRET CLR-Nluc / RIT-Venus); conditions: HEK293T, CLR-Nluc + FLAG-RAMP3, RIT-Venus BRET; mean ± SEM, n = 4-5
CLR-RAMP1 [3] = biological target: T1, CLR-RAMP1; test: β-arrestin1 recruitment to CLR-RAMP1 (BRET); conditions: HEK293T, n = 3
CLR-RAMP3 [4] = biological target: T2, CLR-RAMP3; test: β-arrestin1 recruitment to CLR-RAMP3 (BRET); conditions: HEK293T, n = 3
CLR-RAMP1 [5] = biological target: T1, CLR-RAMP1; test: cAMP accumulation at CLR-RAMP1
CLR-RAMP1 [6] = biological target: T1, CLR-RAMP1; test: β-arrestin2 recruitment to CLR-RAMP1 (BRET); conditions: HEK293T, n = 3
CLR-RAMP3 [7] = biological target: T2, CLR-RAMP3; test: β-arrestin2 recruitment to CLR-RAMP3 (BRET); conditions: HEK293T, n = 3

T2 sequence (Q16602 23-461): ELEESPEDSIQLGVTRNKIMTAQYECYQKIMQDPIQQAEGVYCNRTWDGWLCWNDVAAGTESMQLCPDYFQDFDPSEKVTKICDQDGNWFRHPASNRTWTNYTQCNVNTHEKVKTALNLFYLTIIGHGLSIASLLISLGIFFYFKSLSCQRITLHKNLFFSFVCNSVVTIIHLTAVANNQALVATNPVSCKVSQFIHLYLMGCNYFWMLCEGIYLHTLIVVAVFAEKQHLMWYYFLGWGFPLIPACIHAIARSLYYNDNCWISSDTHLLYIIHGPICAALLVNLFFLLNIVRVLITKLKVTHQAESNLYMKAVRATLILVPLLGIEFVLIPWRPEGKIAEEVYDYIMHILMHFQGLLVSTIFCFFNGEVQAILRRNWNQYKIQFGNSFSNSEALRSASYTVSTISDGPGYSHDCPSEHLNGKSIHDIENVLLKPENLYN
T2 sequence (O60896 24-148): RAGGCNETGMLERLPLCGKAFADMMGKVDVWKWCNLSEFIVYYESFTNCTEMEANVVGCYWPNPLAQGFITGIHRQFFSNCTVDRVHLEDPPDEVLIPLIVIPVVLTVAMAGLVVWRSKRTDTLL
T1 sequence (Q16602 23-461): as the sequence (Q16602 23-461) above
T1 sequence (O60894 27-148): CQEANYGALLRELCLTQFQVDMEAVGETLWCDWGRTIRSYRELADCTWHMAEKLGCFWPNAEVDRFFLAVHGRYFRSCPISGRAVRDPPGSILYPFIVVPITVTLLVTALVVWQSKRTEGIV

- Emax, internalisation (CLR-RAMP1 [1]): ~-44 ± 42 BRET units (x10^-3)
- Emax, internalisation (CLR-RAMP3 [2]): -5 ± 1 BRET units (x10^-3)
- Emax, β-arrestin1 recruitment (CLR-RAMP1 [3]; CLR-Nluc + FLAG-RAMP1 + β-arrestin1-YFP, BRET, mean ± SEM): ~63 ± 14 BRET units (x10^-3)
- Emax, β-arrestin1 recruitment (CLR-RAMP1 [3]; GRK2 overexpressed): ~57 ± 7 BRET units (x10^-3)
- Emax, β-arrestin1 recruitment (CLR-RAMP1 [3]; GRK3 overexpressed): ~43 ± 5 BRET units (x10^-3)
- Emax, β-arrestin1 recruitment (CLR-RAMP1 [3]; GRK4 overexpressed): ~39 ± 7 BRET units (x10^-3)
- Emax, β-arrestin1 recruitment (CLR-RAMP1 [3]; GRK6 overexpressed): ~11 ± 2 BRET units (x10^-3)
- Emax, β-arrestin1 recruitment (CLR-RAMP1 [3]; GRK series: Vector): ~63 ± 14 BRET units (x10^-3)
- Emax, β-arrestin1 recruitment (CLR-RAMP3 [4]; CLR-Nluc + FLAG-RAMP3 + β-arrestin1-YFP, BRET, mean ± SEM): 8 ± 1 BRET units (x10^-3)
- Emax, β-arrestin1 recruitment (CLR-RAMP3 [4]; GRK2 overexpressed): 6 ± 1 BRET units (x10^-3)
- Emax, β-arrestin1 recruitment (CLR-RAMP3 [4]; GRK3 overexpressed): 5 ± 1 BRET units (x10^-3)
- Emax, β-arrestin1 recruitment (CLR-RAMP3 [4]; GRK4 overexpressed): 4 ± 1 BRET units (x10^-3)
- Emax, β-arrestin1 recruitment (CLR-RAMP3 [4]; GRK series: Vector): 7 ± 1 BRET units (x10^-3)
- Emax, cAMP accumulation (CLR-RAMP1 [5]; HEK293T, CLR-Nluc + FLAG-RAMP1, 30 min stimulation, LANCE ultra, mean ± SEM, n = 3-4): 84.7 ± 3.0 percentage 100 μM forskolin
- Emax, cAMP accumulation (CLR-RAMP1 [5]; HEK293T, GRK2 overexpressed, 30 min, n = 3): 61.6 ± 3.7 percentage 100μM forskolin
- Emax, cAMP accumulation (CLR-RAMP1 [5]; HEK293T, GRK3 overexpressed, 30 min, n = 3): 46.5 ± 2.9 percentage 100μM forskolin
- Emax, cAMP accumulation (CLR-RAMP1 [5]; HEK293T, GRK4 overexpressed, 30 min, n = 3): 51.3 ± 5.3 percentage 100μM forskolin
- Emax, cAMP accumulation (CLR-RAMP1 [5]; HEK293T, GRK5 overexpressed, 30 min, n = 3): 40.0 ± 4.8 percentage 100μM forskolin
- Emax, cAMP accumulation (CLR-RAMP1 [5]; HEK293T, GRK6 overexpressed, 30 min, n = 3): 58.9 ± 7.4 percentage 100μM forskolin
- Emax, cAMP accumulation (CLR-RAMP1 [5]; HEK293T, β-arrestin1 overexpressed, 500 μM IBMX, mean ± SEM, n = 4): 98.6 ± 2.4 percentage 100 μM forskolin
- Emax, cAMP accumulation (CLR-RAMP1 [5]; HEK293T, β-arrestin2 overexpressed, 500 μM IBMX, mean ± SEM, n = 3-4): 99.3 ± 2.1 percentage 100 μM forskolin
- Emax, cAMP accumulation (CLR-RAMP1 [5]; HEK293 cells, 500 μM IBMX, mean ± SEM, n = 4): 81.1 ± 7.9 percentage 100 μM forskolin
- Emax, cAMP accumulation (CLR-RAMP1 [5]; HEK293Δβ-arr1/2 cells, 500 μM IBMX, mean ± SEM, n = 4): 89.0 ± 5.4 percentage 100 μM forskolin
- Emax, cAMP accumulation (CLR-RAMP1 [5]; pre-treated with 100 μM barbadin, 30 min, mean ± SEM, n = 5-6): ~91.4 ± 5.5 percentage 100μM forskolin
- Emax, cAMP accumulation (CLR-RAMP1 [5]; pre-treated with 1% DMSO, 30 min, mean ± SEM, n = 5-6): 88.0 ± 5.2 percentage 100μM forskolin
- Emax, β-arrestin2 recruitment (CLR-RAMP1 [6]; CLR-Nluc + FLAG-RAMP1 + β-arrestin2-YFP, BRET, mean ± SEM): ~98 ± 10 BRET units (x10^-3)
- Emax, β-arrestin2 recruitment (CLR-RAMP1 [6]; GRK2 overexpressed): ~54 ± 4 BRET units (x10^-3)
- Emax, β-arrestin2 recruitment (CLR-RAMP1 [6]; GRK3 overexpressed): ~47 ± 3 BRET units (x10^-3)
- Emax, β-arrestin2 recruitment (CLR-RAMP1 [6]; GRK4 overexpressed): ~48 ± 3 BRET units (x10^-3)
- Emax, β-arrestin2 recruitment (CLR-RAMP1 [6]; GRK5 overexpressed): 11 ± 1 BRET units (x10^-3)
- Emax, β-arrestin2 recruitment (CLR-RAMP1 [6]; GRK series: Vector): ~98 ± 10 BRET units (x10^-3)
- Emax, β-arrestin2 recruitment (CLR-RAMP3 [7]; CLR-Nluc + FLAG-RAMP3 + β-arrestin2-YFP, BRET, mean ± SEM): 11 ± 1 BRET units (x10^-3)
- Emax, β-arrestin2 recruitment (CLR-RAMP3 [7]; GRK2 overexpressed): 8 ± 1 BRET units (x10^-3)
- Emax, β-arrestin2 recruitment (CLR-RAMP3 [7]; GRK3 overexpressed): 11 ± 2 BRET units (x10^-3)
- Emax, β-arrestin2 recruitment (CLR-RAMP3 [7]; GRK4 overexpressed): 8 ± 1 BRET units (x10^-3)
- Emax, β-arrestin2 recruitment (CLR-RAMP3 [7]; GRK series: Vector): 11 ± 1 BRET units (x10^-3)
SMILES: CC[C@H](C)[C@H](NC(=O)[C@H](CCC(N)=O)NC(=O)[C@H](Cc1c[nH]cn1)NC(=O)[C@H](C)NC(=O)[C@H](CC(C)C)NC(=O)[C@H](CCCCN)NC(=O)[C@H](CCC(N)=O)NC(=O)[C@@H](NC(=O)[C@@H](NC(=O)[C@@H]1CSSC[C@H](NC(=O)CNC(=O)[C@H](Cc2ccccc2)NC(=O)[C@H](CO)NC(=O)[C@H](CCCNC(=N)N)NC(=O)[C@H](CC(C)C)NC(=O)CNC(=O)[C@H](CCC(N)=O)NC(=O)[C@H](Cc2ccccc2)NC(=O)[C@H](CC(N)=O)NC(=O)[C@H](CC(N)=O)NC(=O)[C@H](CCSC)NC(=O)[C@H](CO)NC(=O)[C@H](CCC(N)=O)NC(=O)[C@H](CCCNC(=N)N)NC(=O)[C@@H](N)Cc2ccc(O)cc2)C(=O)N[C@@H](CCCNC(=N)N)C(=O)N[C@@H](Cc2ccccc2)C(=O)NCC(=O)N[C@@H]([C@@H](C)O)C(=O)N1)[C@@H](C)O)C(C)C)C(=O)N[C@@H](Cc1ccc(O)cc1)C(=O)N[C@@H](CCC(N)=O)C(=O)N[C@@H](Cc1ccccc1)C(=O)N[C@H](C(=O)N[C@@H](CC(=O)O)C(=O)N[C@@H](CCCCN)C(=O)N[C@@H](CC(=O)O)C(=O)N[C@@H](CCCCN)C(=O)N[C@@H](CC(=O)O)C(=O)N[C@@H](CC(N)=O)C(=O)N[C@H](C(=O)N[C@@H](C)C(=O)N1CCC[C@H]1C(=O)N[C@@H](CCCNC(=N)N)C(=O)N[C@@H](CO)C(=O)N[C@@H](CCCCN)C(=O)N[C@H](C(=O)N[C@@H](CO)C(=O)N1CCC[C@H]1C(=O)N[C@@H](CCC(N)=O)C(=O)NCC(=O)N[C@@H](Cc1ccc(O)cc1)C(N)=O)[C@@H](C)CC)C(C)C)[C@@H](C)O [AM, adrenomedullin]
- cAMP response via endogenous low levels of CLR and RAMPs (HEK293T cells): small response

Reference: paper PMC9001978, “Determining the Effects of Differential Expression of GRKs and β-arrestins on CLR-RAMP Agonist Bias” (Frontiers in Physiology, 2022)
